Laboratory results taken from PubChem BioAssay (NCI).
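Interpolation was linear, between the two tested concentrations surrounding the appropriate level; five concentrations were tested over 48 hours in 96-well plates. TGI: concentration producing complete growth inhibition.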

Legend:
Experiment in all cases: NCI anticancer screen, dose series, 48 h
SK-MEL-5 melanoma = test system: SK-MEL-5 melanoma
MDA-N = test system: MDA-N
OVCAR-4 ovarian = test system: OVCAR-4 ovarian
SK-OV-3 ovarian = test system: SK-OV-3 ovarian
HL-60(TB) leukemia = test system: HL-60(TB) leukemia
MDA-MB-435 = test system: MDA-MB-435
CCRF-CEM leukemia = test system: CCRF-CEM leukemia
SK-MEL-28 melanoma = test system: SK-MEL-28 melanoma
NCI-H460 lung = test system: NCI-H460 lung
COLO 205 colon = test system: COLO 205 colon
RXF 393 renal = test system: RXF 393 renal
NCI-H23 lung = test system: NCI-H23 lung
SW-620 colon = test system: SW-620 colon
MCF7 breast = test system: MCF7 breast
OVCAR-3 ovarian = test system: OVCAR-3 ovarian
M14 melanoma = test system: M14 melanoma
SF-295 CNS = test system: SF-295 CNS
SK-MEL-2 melanoma = test system: SK-MEL-2 melanoma
HCT-116 colon = test system: HCT-116 colon
NCI-H226 lung = test system: NCI-H226 lung
UACC-257 melanoma = test system: UACC-257 melanoma
SR leukemia = test system: SR leukemia
KM12 colon = test system: KM12 colon
LOX IMVI melanoma = test system: LOX IMVI melanoma
A498 renal = test system: A498 renal
SF-539 CNS = test system: SF-539 CNS
U251 CNS = test system: U251 CNS
UO-31 renal = test system: UO-31 renal
HCC-2998 colon = test system: HCC-2998 colon
T-47D breast = test system: T-47D breast
MOLT-4 leukemia = test system: MOLT-4 leukemia
MDA-MB-231 breast = test system: MDA-MB-231 breast
NCI-H522 lung = test system: NCI-H522 lung
OVCAR-5 ovarian = test system: OVCAR-5 ovarian
IGROV1 ovarian = test system: IGROV1 ovarian
CAKI-1 renal = test system: CAKI-1 renal
RPMI-8226 leukemia = test system: RPMI-8226 leukemia
TK-10 renal = test system: TK-10 renal
HT29 colon = test system: HT29 colon
UACC-62 melanoma = test system: UACC-62 melanoma
HCT-15 colon = test system: HCT-15 colon
OVCAR-8 ovarian = test system: OVCAR-8 ovarian
SF-268 CNS = test system: SF-268 CNS
EKVX NSCLC = test system: EKVX NSCLC
BT-549 breast = test system: BT-549 breast
SN12C renal = test system: SN12C renal
HOP-92 NSCLC = test system: HOP-92 NSCLC
786-0 renal = test system: 786-0 renal
HS 578T breast = test system: HS 578T breast
HOP-62 NSCLC = test system: HOP-62 NSCLC
DU-145 prostate = test system: DU-145 prostate
ACHN renal = test system: ACHN renal
SNB-75 CNS = test system: SNB-75 CNS
A549 NSCLC = test system: A549 NSCLC
K-562 leukemia = test system: K-562 leukemia
NCI/ADR-RES ovarian = test system: NCI/ADR-RES ovarian
PC-3 prostate = test system: PC-3 prostate
MALME-3M melanoma = test system: MALME-3M melanoma
SNB-19 CNS = test system: SNB-19 CNS

O=S1(=O)c2ccccc2C(=NO)c2ccccc21
TGI (SK-MEL-5 melanoma): > 100 µM | TGI (MDA-N): > 100 µM | TGI (OVCAR-4 ovarian): > 100 µM | TGI (SK-OV-3 ovarian): > 100 µM | TGI (HL-60(TB) leukemia): 36.2 µM | TGI (MDA-MB-435): > 100 µM | TGI (CCRF-CEM leukemia): > 100 µM | TGI (SK-MEL-28 melanoma): > 100 µM | TGI (NCI-H460 lung): > 100 µM | TGI (COLO 205 colon): > 100 µM | TGI (RXF 393 renal): > 100 µM | TGI (NCI-H23 lung): > 100 µM | TGI (SW-620 colon): > 100 µM | TGI (MCF7 breast): > 100 µM | TGI (OVCAR-3 ovarian): > 100 µM | TGI (M14 melanoma): > 100 µM | TGI (SF-295 CNS): > 100 µM | TGI (SK-MEL-2 melanoma): > 100 µM | TGI (HCT-116 colon): > 100 µM | TGI (NCI-H226 lung): > 100 µM | TGI (UACC-257 melanoma): > 100 µM | TGI (SR leukemia): > 100 µM | TGI (KM12 colon): > 100 µM | TGI (LOX IMVI melanoma): > 100 µM | TGI (A498 renal): > 100 µM | TGI (SF-539 CNS): > 100 µM | TGI (U251 CNS): > 100 µM | TGI (UO-31 renal): > 100 µM | TGI (HCC-2998 colon): > 100 µM | TGI (T-47D breast): > 100 µM | TGI (MOLT-4 leukemia): > 100 µM | TGI (MDA-MB-231 breast): > 100 µM | TGI (NCI-H522 lung): > 100 µM | TGI (OVCAR-5 ovarian): > 100 µM | TGI (IGROV1 ovarian): > 100 µM | TGI (CAKI-1 renal): > 100 µM | TGI (RPMI-8226 leukemia): > 100 µM | TGI (TK-10 renal): > 100 µM | TGI (HT29 colon): > 100 µM | TGI (UACC-62 melanoma): > 100 µM | TGI (HCT-15 colon): > 100 µM | TGI (OVCAR-8 ovarian): > 100 µM | TGI (SF-268 CNS): > 100 µM | TGI (EKVX NSCLC): > 100 µM | TGI (BT-549 breast): > 100 µM | TGI (SN12C renal): > 100 µM | TGI (HOP-92 NSCLC): > 100 µM | TGI (786-0 renal): > 100 µM | TGI (HS 578T breast): > 100 µM | TGI (HOP-62 NSCLC): > 100 µM | TGI (DU-145 prostate): > 100 µM | TGI (ACHN renal): > 100 µM | TGI (SNB-75 CNS): > 100 µM | TGI (A549 NSCLC): > 100 µM | TGI (K-562 leukemia): > 100 µM | TGI (NCI/ADR-RES ovarian): > 100 µM | TGI (PC-3 prostate): > 100 µM

Cc1[nH]c2ccccc2c1C=Nc1ccc(N=Cc2c(C)[nH]c3ccccc23)cc1
TGI (SK-MEL-5 melanoma): 93.8 µM | TGI (MDA-N): > 100 µM | TGI (OVCAR-4 ovarian): > 100 µM | TGI (SK-OV-3 ovarian): > 100 µM | TGI (HL-60(TB) leukemia): 41.8 µM | TGI (MDA-MB-435): 51.7 µM | TGI (CCRF-CEM leukemia): 47.6 µM | TGI (SK-MEL-28 melanoma): > 100 µM | TGI (NCI-H460 lung): > 100 µM | TGI (COLO 205 colon): 27.3 µM | TGI (RXF 393 renal): > 100 µM | TGI (NCI-H23 lung): > 100 µM | TGI (SW-620 colon): 70.2 µM | TGI (MCF7 breast): 30.1 µM | TGI (OVCAR-3 ovarian): > 100 µM | TGI (M14 melanoma): > 100 µM | TGI (SF-295 CNS): > 100 µM | TGI (SK-MEL-2 melanoma): 57.2 µM | TGI (HCT-116 colon): 38.2 µM | TGI (NCI-H226 lung): > 100 µM | TGI (UACC-257 melanoma): > 100 µM | TGI (SR leukemia): 46.9 µM | TGI (KM12 colon): 32.3 µM | TGI (LOX IMVI melanoma): 36.5 µM | TGI (A498 renal): > 100 µM | TGI (SF-539 CNS): > 100 µM | TGI (U251 CNS): > 100 µM | TGI (UO-31 renal): > 100 µM | TGI (MALME-3M melanoma): > 100 µM | TGI (HCC-2998 colon): > 100 µM | TGI (T-47D breast): > 100 µM | TGI (MOLT-4 leukemia): 43.1 µM | TGI (MDA-MB-231 breast): > 100 µM | TGI (NCI-H522 lung): 41.9 µM | TGI (OVCAR-5 ovarian): > 100 µM | TGI (IGROV1 ovarian): > 100 µM | TGI (CAKI-1 renal): > 100 µM | TGI (RPMI-8226 leukemia): 45.3 µM | TGI (TK-10 renal): > 100 µM | TGI (HT29 colon): > 100 µM | TGI (UACC-62 melanoma): > 100 µM | TGI (HCT-15 colon): > 100 µM | TGI (OVCAR-8 ovarian): > 100 µM | TGI (SF-268 CNS): > 100 µM | TGI (EKVX NSCLC): > 100 µM | TGI (BT-549 breast): > 100 µM | TGI (SN12C renal): > 100 µM | TGI (HOP-92 NSCLC): > 100 µM | TGI (786-0 renal): 35.7 µM | TGI (HS 578T breast): > 100 µM | TGI (HOP-62 NSCLC): > 100 µM | TGI (DU-145 prostate): > 100 µM | TGI (ACHN renal): > 100 µM | TGI (SNB-75 CNS): > 100 µM | TGI (SNB-19 CNS): > 100 µM | TGI (A549 NSCLC): > 100 µM | TGI (K-562 leukemia): 47 µM | TGI (NCI/ADR-RES ovarian): > 100 µM | TGI (PC-3 prostate): > 100 µM
